Consider 6 molecules from ChEMBL document CHEMBL1201862, “PubChem BioAssay data set” (2004).

Usually AC50 stands for the concentration at which the activity in the assay is half-maximal. In general, EC50 refers to the midpoint of the concentration-response curve. One may read the CC50 as the concentration giving 50% cytotoxicity.

The structures appear in SMILES notation. Active and inactive are the calls of the source. Where only a bound is given, the exact number is not on record here.

Assay [1] addresses T1, Sphingosine 1-phosphate receptor 4 (Homo sapiens, UniProt O95977).
T1 sequence (O95977 whole entry): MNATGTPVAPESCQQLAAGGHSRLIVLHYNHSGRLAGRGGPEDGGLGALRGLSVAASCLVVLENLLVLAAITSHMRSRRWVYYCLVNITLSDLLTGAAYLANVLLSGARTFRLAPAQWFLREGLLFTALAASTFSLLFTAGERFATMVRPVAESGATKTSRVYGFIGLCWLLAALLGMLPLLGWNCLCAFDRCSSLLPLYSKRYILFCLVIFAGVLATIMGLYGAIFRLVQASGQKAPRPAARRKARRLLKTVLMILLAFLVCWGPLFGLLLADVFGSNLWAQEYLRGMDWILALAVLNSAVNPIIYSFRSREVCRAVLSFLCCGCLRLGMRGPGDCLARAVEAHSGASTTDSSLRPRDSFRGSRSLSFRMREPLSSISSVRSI
Briefly: Fluorescence dose response cell-based high throughput screening assay for antagonists of the Sphingosine 1-Phosphate Receptor 4 (S1P4). [Related pubchem assays: 1524 (Confirmation in triplicates.), 1510 (Primary screen.)]. The class given is functional.

Assay [2] has as its target UDP-galactopyranose mutase (Mycobacterium tuberculosis, UniProt P9WIQ1). The experiment in a line: Inhibitors of Mycobacterium tuberculosis UDP-galactopyranose mutase (UGM) enzyme Measured in Biochemical System Using Plate Reader - 2105-02_Inhibitor_Dose_CherryPick_Activity. [Related pubchem assays (depositor defined):AID504439].
The target of a further assay is Integrin alpha-4 (Homo sapiens, UniProt P13612). Briefly: VLA-4 integrin allosteric ligands, SAR follow-up, cell-based, LIBS antibody binding, flow cytometry (AID 488791). In kind it is functional.
Chain of Integrin alpha-4 (P13612 whole entry): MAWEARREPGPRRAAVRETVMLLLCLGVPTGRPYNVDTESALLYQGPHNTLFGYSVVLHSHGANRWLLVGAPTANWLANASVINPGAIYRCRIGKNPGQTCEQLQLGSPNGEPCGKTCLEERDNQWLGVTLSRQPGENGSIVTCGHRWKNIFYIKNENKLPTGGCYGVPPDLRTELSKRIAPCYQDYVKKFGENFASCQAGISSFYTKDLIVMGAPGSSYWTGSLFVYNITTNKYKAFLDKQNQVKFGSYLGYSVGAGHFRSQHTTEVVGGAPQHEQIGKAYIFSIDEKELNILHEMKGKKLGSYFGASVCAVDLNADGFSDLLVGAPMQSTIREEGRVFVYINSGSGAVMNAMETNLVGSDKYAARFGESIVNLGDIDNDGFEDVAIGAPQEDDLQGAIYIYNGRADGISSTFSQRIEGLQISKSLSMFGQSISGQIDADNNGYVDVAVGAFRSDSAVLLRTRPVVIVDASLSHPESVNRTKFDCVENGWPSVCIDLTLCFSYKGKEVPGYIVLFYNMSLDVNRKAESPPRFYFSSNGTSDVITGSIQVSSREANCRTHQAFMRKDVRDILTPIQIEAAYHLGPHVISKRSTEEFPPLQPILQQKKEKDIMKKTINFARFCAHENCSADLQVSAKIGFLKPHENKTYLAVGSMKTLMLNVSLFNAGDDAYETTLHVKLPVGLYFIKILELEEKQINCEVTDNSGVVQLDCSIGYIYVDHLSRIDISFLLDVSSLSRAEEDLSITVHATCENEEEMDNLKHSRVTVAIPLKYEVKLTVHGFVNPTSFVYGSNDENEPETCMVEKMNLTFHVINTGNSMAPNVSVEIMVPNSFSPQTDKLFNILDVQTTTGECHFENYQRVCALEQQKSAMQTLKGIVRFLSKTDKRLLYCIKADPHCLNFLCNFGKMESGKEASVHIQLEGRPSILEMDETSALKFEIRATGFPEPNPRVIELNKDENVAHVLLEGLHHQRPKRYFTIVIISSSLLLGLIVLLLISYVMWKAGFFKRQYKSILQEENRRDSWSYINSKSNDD
Assay [3] concerns the target T2, Mitochondrial peptide methionine sulfoxide reductase (Bos taurus, UniProt P54149).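 Note: absorbance read-out, biochemical high-throughput dose-response screen for MsrA inhibitors, confirmatory; recombinant bovine MsrA coupled to E. coli TrxB with NADPH and selenocystamine; potency is for inhibitors of MsrA activity on DMSO substrate.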
T2 sequence (P54149 whole entry): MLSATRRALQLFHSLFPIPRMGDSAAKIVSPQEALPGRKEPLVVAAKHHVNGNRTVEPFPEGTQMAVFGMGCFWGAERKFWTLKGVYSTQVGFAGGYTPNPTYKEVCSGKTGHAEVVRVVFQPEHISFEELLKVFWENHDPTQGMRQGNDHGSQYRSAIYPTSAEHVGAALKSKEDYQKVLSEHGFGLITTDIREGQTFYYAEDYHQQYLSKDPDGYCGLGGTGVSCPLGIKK
In kind it is functional.

Assay [4] has as its target Voltage-gated N-type calcium channel alpha-1B subunit/Amyloid beta A4 precursor protein-binding family A member 1 (Homo sapiens, UniProt Q00975+Q02410). The class given is protein assay.
In a further assay the target is ORF 73 (Human herpesvirus 8, UniProt O40947). The experiment in a line: inhibitors of C-LANA binding to LBS DNA, dose response, biochemical, fluorescence polarization, cherry-picked samples (AID 504725).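 Note: fluorescence polarization of a labeled DNA duplex reporting LANA DNA binding; potency is for inhibitors that block LANA binding to the DNA.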 Details: species or system Human gammaherpesvirus 8. (In general: In fluorescence polarisation assays a small probe gives low polarisation when free and higher when bound to something large.)

A further assay addresses Fatty acid synthase (Homo sapiens, UniProt P49327). Briefly: FAS thioesterase domain inhibitors, dose response, biochemical, endpoint fluorescence intensity, uHTS hits (AID 624327).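 Note: fluorescence from hydrolysis of an O-methyl fluorescein acyl ester substrate by the enzyme.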 In kind it is functional.
The target in assay [5] is Small ubiquitin-related modifier 1 (Homo sapiens, UniProt P63165). Briefly: inhibitors of SUMO1 partner interactions, dose response, biochemical, FRET (AID 624383). In kind it is functional. The settings on record: read-out: IC50_Mean.
Chain of Small ubiquitin-related modifier 1 (P63165 whole entry): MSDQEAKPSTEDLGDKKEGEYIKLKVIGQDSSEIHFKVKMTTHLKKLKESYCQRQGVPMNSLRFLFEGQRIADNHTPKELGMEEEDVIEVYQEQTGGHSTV
Assay [6] is described as follows: THP-1 cell cytotoxicity, dose response, cytotoxicity control for Vif-APOBEC3G degradation inhibitor project, THP-1 cells (AID 1117359). The class given is functional. As to conditions: Human immunodeficiency virus 1, THP-1.
In assay [7] the test system is Streptococcus sp. 'group A'. Briefly: growth inhibition of control SK(-) GAS strain, dose response, counter-screen for streptokinase expression inhibitor project, luminescence, kanamycin, BacTiterGlo, confirmation (AID 1900). In kind it is functional, organism-based. On the technique in general: Counterscreens check selectivity or assay interference.
Assay [8] deals with Neuropeptide Y receptor type 2 (Homo sapiens, UniProt P49146). The class given is functional, cell-based.
Chain of Neuropeptide Y receptor type 2 (P49146 whole entry): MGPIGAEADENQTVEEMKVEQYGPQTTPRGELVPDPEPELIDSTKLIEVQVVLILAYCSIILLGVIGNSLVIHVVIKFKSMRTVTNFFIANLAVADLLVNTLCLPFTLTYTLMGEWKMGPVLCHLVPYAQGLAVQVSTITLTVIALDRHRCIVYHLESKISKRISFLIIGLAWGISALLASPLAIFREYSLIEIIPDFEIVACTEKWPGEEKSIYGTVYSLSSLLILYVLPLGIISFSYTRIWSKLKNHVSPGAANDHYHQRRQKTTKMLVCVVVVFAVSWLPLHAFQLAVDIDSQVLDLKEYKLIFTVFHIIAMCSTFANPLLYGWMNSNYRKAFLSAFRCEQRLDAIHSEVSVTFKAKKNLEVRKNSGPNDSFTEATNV
A further assay concerns Streptococcus. The experiment in a line: Group A Streptococcus viability loss, dose response, counter-screen for streptokinase expression inhibitor project, luminescence, BacTiterGlo (AID 1915).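 Note: potency for reduction of bacterial viability or growth.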 In kind it is functional, organism-based.
The nature of assay [9]: NIH-3T3 fibroblast cytotoxicity, dose response, cytotoxicity control, cell-based, fluorescence, Alamar Blue, secondary assay (AID 2327).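 Note: NIH-3T3 mouse fibroblasts cultured with fluconazole at 8 µg/mL.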 The class given is functional. Background: Resazurin is reduced to fluorescent resorufin, in cell work by metabolically active cells.
Assay [10] in a line: cells. The class given is functional, cell-based.
Assay [11] can be described thus: cells. In kind it is functional, cell-based. This is another data set of the same source.
In another assay the test system is HEK293. Briefly: cytotoxicity in HEK293T NF-kB-Luc cells, SAR follow-up, cytotoxicity control for NF-kB activator project, cell-based, resazurin fluorescence (AID 493251). The class given is functional.
In a further assay the test system is Jurkat. Briefly: SAR Analysis of small molecule inhibitors of T-cell specific antigen receptor-induced NF-kB activation in a Jurkat cell line using a luminescence assay - Set 2. [Related pubchem assays (depositor defined):AID435003, AID435012, AID465]. In kind it is functional, cell-based. The settings on record: Homo sapiens.

Chain of Fatty acid synthase (P49327 whole entry, the tested form may be a part): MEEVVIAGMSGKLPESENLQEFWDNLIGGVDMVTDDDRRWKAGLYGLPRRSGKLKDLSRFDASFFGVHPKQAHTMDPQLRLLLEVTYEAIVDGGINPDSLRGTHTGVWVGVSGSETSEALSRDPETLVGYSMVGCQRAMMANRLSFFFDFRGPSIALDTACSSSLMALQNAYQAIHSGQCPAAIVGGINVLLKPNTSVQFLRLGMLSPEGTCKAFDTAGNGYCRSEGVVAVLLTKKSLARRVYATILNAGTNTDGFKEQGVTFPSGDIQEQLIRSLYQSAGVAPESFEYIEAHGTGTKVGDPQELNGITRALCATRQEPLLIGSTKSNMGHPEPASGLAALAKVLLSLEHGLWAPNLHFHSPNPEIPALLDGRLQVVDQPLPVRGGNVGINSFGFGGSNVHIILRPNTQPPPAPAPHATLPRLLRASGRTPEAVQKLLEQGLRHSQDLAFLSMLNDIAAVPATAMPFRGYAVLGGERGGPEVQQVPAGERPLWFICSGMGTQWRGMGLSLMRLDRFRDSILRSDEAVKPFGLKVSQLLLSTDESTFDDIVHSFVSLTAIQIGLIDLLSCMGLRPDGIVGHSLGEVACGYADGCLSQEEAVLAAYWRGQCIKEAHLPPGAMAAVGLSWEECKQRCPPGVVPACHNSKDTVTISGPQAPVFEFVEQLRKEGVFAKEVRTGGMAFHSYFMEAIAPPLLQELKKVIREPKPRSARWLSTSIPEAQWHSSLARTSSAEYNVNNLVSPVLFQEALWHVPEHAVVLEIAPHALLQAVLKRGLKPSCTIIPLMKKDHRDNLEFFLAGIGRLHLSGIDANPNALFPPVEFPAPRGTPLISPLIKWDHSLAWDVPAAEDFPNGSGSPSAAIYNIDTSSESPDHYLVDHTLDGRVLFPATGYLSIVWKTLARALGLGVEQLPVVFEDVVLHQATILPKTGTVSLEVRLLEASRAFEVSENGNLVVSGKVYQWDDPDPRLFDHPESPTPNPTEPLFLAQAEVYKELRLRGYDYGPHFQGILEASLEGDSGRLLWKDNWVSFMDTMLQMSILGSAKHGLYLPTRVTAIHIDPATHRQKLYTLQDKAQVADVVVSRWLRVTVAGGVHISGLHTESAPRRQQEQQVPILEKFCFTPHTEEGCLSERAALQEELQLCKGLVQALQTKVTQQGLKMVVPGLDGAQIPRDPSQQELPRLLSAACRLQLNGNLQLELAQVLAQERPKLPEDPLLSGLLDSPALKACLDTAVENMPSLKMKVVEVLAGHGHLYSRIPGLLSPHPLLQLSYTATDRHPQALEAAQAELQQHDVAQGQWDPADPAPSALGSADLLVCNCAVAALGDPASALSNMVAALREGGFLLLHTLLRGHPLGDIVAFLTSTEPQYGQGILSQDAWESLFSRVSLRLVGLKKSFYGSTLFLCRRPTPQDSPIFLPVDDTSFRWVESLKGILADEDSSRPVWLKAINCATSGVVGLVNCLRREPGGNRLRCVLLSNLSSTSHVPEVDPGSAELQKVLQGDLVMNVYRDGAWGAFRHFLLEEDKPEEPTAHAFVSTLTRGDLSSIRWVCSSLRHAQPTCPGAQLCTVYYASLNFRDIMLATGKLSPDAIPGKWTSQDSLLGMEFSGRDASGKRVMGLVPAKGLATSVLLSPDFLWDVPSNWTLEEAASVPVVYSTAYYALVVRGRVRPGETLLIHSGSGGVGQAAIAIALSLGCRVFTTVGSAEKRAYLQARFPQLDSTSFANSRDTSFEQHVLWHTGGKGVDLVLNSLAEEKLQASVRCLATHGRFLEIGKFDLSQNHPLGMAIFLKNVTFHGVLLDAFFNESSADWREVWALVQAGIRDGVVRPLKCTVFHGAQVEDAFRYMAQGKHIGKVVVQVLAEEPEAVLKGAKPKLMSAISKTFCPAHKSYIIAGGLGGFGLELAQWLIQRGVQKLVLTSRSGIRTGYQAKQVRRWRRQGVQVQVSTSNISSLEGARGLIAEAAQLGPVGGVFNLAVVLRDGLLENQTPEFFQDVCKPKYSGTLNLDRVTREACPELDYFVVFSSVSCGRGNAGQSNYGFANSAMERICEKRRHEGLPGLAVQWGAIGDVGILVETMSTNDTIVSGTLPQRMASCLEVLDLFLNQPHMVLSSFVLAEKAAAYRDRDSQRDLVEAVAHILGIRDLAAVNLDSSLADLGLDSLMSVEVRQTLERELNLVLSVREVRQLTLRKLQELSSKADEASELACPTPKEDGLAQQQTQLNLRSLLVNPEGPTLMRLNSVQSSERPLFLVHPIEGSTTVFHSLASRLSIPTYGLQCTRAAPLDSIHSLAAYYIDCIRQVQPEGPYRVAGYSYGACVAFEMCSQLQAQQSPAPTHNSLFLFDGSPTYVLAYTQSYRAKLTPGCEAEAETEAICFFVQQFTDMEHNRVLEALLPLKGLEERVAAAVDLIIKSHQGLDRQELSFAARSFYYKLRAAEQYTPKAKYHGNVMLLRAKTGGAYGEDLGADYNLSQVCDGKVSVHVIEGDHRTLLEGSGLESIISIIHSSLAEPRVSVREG
Chain of UDP-galactopyranose mutase (P9WIQ1 whole entry): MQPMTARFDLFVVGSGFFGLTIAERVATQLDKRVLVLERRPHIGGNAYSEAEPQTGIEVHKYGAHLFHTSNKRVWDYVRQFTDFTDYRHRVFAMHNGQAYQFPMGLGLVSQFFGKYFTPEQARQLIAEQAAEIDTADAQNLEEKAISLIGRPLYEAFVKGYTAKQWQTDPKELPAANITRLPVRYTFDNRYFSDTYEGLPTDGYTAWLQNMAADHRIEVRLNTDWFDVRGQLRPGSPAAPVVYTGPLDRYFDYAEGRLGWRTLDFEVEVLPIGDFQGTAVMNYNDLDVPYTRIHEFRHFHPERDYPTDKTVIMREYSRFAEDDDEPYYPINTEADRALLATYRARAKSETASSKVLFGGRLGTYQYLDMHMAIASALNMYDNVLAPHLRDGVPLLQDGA

With `COC(CNC(=O)c1ccc2c3c(onc13)-c1ccccc1C2=O)OC`, in [1], the IC50 is 1.63 µM (active). In [2], the AC50 was 2.79 µM (active).
With `COC(=O)[C@@H]1[C@@H](C(=O)OC)C2(c3ccccc3-c3ccccc32)N(c2ccc(Cl)cc2)N1C#N`, on Integrin alpha-4, the EC50 is > 49.2 µM (inactive).
For `O=C(O)c1ccc(NC2=C/C(=N/S(=O)(=O)c3ccccc3)c3ccccc3C2=O)cc1`, the IC50 in assay [3] is 6.42 µM (active).
Consider `COc1cc(-c2ccc(Nc3ccccc3C(=O)O)c(OC)c2)ccc1Nc1ccccc1C(=O)O`, for which the IC50 in [4] was 30 µM (active); at Fatty acid synthase, 7.61 µM (active); in assay [5], 3.9 µM (active). For the same molecule, the AC50 on ORF 73 was 78.9 µM (active). For the same molecule, the CC50 in assay [6] is > 40 µM (active).
In the case of `Nc1ccc2c(c1)C(=O)C(=O)c1ccccc1-2`, the EC50 was 0.46 µM (active) in assay [7] and 4.95 µM (active) with Streptococcus. Moreover, in [8], the IC50 is 4.25 µM (active).
With `CCCC(=O)NC(c1ccccc1OC)c1ccc2cccnc2c1O` (stereo not drawn), the figures for the EC50 (in assay [9]; in “cells [10]”; in “cells [11]”) were 28.7 µM (active), 7.86 µM (active) and > 350 µM (not active), respectively. Besides, the IC50 is 29.6 µM (inactive) in the assay on HEK293 (Homo sapiens, HEK293); 41.2 µM (inactive) in the assay with HEK293 (hek293); 5.16 µM (active) with Jurkat.
